Patent US6403808B1, “Selective 5-HT6 receptor ligands” (priority 2001, dated 2002)
Where a name gives a salt, the structure may show the parent alone. Read-outs that look alike come from different tables or passages of the source.

Experiments:
[1] = target: T1, human 5-HT6 (Homo sapiens, UniProt P50406); assay: biochemical; format: binding
T1 construct: expressed in transfected cells; host or cells: HEK 293

[2] = target: T2, 5-HT3 receptors (Homo sapiens, UniProt P46098); assay: Affinity at 5-HT3 receptors; format: binding
T2 sequence (P46098 24-478): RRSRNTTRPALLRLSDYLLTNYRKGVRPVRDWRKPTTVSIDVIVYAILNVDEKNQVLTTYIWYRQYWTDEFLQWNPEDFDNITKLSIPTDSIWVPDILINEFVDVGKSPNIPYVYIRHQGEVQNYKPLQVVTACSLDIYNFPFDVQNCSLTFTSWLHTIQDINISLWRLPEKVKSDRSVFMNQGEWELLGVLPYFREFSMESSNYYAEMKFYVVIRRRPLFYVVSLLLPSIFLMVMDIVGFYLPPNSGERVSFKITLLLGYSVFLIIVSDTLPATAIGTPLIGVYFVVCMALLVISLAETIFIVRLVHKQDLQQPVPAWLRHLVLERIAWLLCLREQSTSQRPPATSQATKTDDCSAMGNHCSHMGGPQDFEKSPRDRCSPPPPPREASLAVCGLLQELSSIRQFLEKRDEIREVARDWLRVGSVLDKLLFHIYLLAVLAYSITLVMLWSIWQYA

[3] = target: T3, Human 5-HT6 receptors stably expressed in 293 HEK cells (Homo sapiens, UniProt P50406); assay: cAMP activation assay (adenylate cyclase activity); format: cell-based; conditions: 5-HT6 receptor
T3 construct: expressed in transfected cells; host or cells: HEK 293
Procedure: Human 5-HT6 receptors stably expressed in 293 HEK cells were grown in 24-well plates to near confluence and 18 h prior to the assay the medium was replaced with DMEM containing dialyzed 10% Fetal Calf Serum. For the assay, the medium was aspirated and replaced with fresh DMEM without serum and incubated with various concentrations of compounds of the invention in a total volume of 0.5 ml for 15 min. The assay was terminated by aspiration and the addition of 10% trichloroacetic acid (TCA). The TCA extract was used for cAMP determinations. (Data represent the mean of N=4 separate determinations). Results of cAMP activation by various compounds of the invention are shown in the attached Drawing of FIG. 1.

[4] = target: hD1 (Homo sapiens, UniProt P21728); assay: NIMH PDSP selectivity binding, hD1
Description: (§1) . […] NET and SERT represent the norepinephrine and serotonin transporters.

[5] = target: rD2 (Rattus norvegicus, UniProt P61169); assay: NIMH PDSP selectivity binding, rD2
Description: as §1

[6] = target: rD3 (Rattus norvegicus, UniProt P19020); assay: NIMH PDSP selectivity binding, rD3
Description: as §1

[7] = target: hD5 (Homo sapiens, UniProt P21918); assay: NIMH PDSP selectivity binding, hD5
Description: as §1

[8] = target: T4, rD4 (Rattus norvegicus, UniProt P30729); assay: NIMH PDSP selectivity binding, rD4
T4 sequence (P30729 1-387): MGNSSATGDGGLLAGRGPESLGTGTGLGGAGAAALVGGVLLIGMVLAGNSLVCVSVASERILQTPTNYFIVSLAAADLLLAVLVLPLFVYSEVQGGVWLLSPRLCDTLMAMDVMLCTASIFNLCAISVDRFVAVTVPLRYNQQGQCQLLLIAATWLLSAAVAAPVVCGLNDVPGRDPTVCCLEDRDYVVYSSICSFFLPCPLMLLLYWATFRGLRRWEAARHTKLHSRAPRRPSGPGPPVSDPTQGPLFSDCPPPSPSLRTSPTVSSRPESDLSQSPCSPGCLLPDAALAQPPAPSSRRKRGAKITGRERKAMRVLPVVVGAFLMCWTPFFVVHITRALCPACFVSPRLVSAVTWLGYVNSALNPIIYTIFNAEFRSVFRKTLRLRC
Description: as §1

Chain of hD1 (P21728 whole entry): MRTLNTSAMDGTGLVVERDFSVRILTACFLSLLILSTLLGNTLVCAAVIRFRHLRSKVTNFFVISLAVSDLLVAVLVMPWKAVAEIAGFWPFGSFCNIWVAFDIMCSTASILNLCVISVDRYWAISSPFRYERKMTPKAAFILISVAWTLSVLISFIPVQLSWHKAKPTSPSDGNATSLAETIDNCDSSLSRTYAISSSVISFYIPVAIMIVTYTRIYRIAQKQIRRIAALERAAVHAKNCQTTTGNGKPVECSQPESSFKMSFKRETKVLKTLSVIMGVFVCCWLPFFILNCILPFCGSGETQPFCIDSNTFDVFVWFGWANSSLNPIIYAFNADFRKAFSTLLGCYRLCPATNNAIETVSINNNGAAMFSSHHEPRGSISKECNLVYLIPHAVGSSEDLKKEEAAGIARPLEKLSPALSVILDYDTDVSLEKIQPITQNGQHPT
T1 sequence (P50406 whole entry): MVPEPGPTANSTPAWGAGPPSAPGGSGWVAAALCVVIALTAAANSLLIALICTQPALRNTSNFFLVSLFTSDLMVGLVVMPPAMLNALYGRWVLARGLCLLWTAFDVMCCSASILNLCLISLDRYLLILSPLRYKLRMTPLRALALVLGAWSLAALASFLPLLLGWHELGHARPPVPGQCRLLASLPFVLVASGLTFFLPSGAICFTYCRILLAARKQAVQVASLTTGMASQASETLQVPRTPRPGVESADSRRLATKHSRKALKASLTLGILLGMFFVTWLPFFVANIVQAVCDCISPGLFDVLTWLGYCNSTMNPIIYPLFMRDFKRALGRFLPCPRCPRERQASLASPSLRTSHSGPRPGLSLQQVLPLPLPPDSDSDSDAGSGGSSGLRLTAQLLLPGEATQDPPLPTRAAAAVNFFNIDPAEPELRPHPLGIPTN
Chain of rD2 (P61169 whole entry): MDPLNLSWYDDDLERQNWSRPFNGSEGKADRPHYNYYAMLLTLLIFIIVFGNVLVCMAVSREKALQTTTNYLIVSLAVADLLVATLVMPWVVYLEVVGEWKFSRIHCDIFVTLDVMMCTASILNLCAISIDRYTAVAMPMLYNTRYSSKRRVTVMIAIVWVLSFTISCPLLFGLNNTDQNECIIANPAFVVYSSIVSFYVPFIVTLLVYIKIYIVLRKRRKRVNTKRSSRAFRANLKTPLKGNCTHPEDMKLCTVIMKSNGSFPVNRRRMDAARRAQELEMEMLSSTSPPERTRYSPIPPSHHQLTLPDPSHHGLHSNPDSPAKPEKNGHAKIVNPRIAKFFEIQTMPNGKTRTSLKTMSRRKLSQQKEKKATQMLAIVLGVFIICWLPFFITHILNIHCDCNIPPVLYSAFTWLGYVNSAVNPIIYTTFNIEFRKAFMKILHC
Chain of rD3 (P19020 whole entry): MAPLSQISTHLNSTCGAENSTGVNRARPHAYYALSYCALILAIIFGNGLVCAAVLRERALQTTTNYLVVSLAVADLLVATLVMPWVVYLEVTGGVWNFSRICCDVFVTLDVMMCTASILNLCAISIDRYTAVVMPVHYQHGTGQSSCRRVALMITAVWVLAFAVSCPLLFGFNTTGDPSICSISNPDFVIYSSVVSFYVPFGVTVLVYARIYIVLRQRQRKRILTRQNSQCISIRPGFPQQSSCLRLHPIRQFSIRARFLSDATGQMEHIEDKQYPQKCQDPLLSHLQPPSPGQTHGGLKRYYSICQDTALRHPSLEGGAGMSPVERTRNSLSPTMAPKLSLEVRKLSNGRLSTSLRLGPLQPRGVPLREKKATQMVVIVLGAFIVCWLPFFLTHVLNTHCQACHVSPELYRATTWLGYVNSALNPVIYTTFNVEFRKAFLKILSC
Chain of hD5 (P21918 whole entry): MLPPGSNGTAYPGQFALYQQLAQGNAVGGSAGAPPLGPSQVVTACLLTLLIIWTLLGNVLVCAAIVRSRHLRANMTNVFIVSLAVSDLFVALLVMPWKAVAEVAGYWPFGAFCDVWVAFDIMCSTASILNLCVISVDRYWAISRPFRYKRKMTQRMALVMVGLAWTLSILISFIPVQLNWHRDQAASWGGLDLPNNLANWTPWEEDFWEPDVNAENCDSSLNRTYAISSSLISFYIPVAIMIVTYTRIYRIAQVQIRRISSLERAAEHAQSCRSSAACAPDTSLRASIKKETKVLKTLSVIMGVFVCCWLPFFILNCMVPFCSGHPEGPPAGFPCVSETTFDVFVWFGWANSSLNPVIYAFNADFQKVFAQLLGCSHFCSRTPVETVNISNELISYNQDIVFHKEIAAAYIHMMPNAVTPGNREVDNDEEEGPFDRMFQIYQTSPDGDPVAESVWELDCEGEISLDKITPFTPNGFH
T3 sequence (P50406 whole entry): as the sequence (P50406 whole entry) above

Cc1[nH]c2ccc(O)cc2c1CCN [2-methyl-5-HT, reference compound]
affinity for the 5-HT6 receptor (in words) [1]: high affinity
affinity for the 5-HT6 receptor (in words) ([1]; listed as 2-methyly-5-HT): affinity equivalent to that of the parent compound
greater affinity at 5-HT6 than at 5-HT3 receptors ([2]; 5-HT6 over 5-HT3): 20 fold

Cc1[nH]c2ccccc2c1CCN(C)C [2-methyl-N,N-dimethyltryptamine]
Ki ([1]; read-out: affinity for the 5-HT6 receptor, Ki): 0.308 µM

COc1ccc2[nH]c(C)c(CCN)c2c1 [5-methoxy-2-methyltryptamine, reference compound]
affinity for the 5-HT6 receptor (in words) [1]: affinity comparable to 2-methyl-5-HT
affinity for 5-HT3 receptors (in words) [2]: lacks affinity

COc1ccc2[nH]c(-c3ccccc3)c(CCN)c2c1 [5-methoxy-2-phenylotryptamine]
affinity for the 5-HT6 receptor (in words) [1]: high affinity
effect on adenylate cyclase activity (in words) [3]: antagonist to 5-HT stimulated adenylate cyclase activity

COc1ccc2[nH]c(C)c(CCN(C)C)c2c1 [Compound A, 2-methyl-5-methoxy-N,N-dimethyltryptamine]
Ki [4]: > 10 µM
Ki [5]: > 10 µM
Ki [6]: > 10 µM
Ki [7]: > 10 µM
Ki [8]: > 10 µM

CCc1[nH]c2ccc(OC)cc2c1CCN(C)C [Compound B, 2-ethyl-5-methoxy-N,N-dimethyltryptamine maleate]
Ki [4]: > 10 µM
Ki [5]: > 10 µM
Ki [6]: > 10 µM
Ki [7]: > 10 µM
Ki [8]: > 10 µM

COc1ccc2[nH]c(-c3ccccc3)c(CCN(C)C)c2c1 [Compound D, 5-methoxy-2-phenyl-N,N-dimethyltryptamine oxalate]
Ki ([4]; hD1, read-out: Ki): ≥ 10 µM
Ki ([5]; rD2, read-out: Ki): ≥ 10 µM
Ki ([8]; rD4, read-out: Ki): ≥ 10 µM

COc1ccc2c(c1)c(CCN(C)C)c1n2CCCC1=O [I, 6,7,8,9-tetrahydro-2-methoxy-10-(N,N-dimethylaminoethyl)pyridol[1,2-a]indole-9-one Oxalate]
Ki ([1]; human 5-HT6 in HEK 293, [3H]LSD, third table, read-out: Ki): 0.084 µM
